From ChEMBL document CHEMBL1201862, “PubChem BioAssay data set” (2004)
Active and inactive are the calls of the source.

What was measured:
Cytochrome P450 2C9 = Cytochrome P450 2C9 (Homo sapiens, UniProt P11712); settings: Potency
Aminopeptidase N = target: T1, Aminopeptidase N (Plasmodium falciparum FcB1/Columbia, UniProt O96935); experiment: malaria alanyl aminopeptidase activity blockers – biochemical, fluorogenic H-Leu-NHMec substrate, 1536-well (AID 1445); parameters: species or system Plasmodium falciparum 3D7, 3D7
T1 sequence (O96935 whole entry): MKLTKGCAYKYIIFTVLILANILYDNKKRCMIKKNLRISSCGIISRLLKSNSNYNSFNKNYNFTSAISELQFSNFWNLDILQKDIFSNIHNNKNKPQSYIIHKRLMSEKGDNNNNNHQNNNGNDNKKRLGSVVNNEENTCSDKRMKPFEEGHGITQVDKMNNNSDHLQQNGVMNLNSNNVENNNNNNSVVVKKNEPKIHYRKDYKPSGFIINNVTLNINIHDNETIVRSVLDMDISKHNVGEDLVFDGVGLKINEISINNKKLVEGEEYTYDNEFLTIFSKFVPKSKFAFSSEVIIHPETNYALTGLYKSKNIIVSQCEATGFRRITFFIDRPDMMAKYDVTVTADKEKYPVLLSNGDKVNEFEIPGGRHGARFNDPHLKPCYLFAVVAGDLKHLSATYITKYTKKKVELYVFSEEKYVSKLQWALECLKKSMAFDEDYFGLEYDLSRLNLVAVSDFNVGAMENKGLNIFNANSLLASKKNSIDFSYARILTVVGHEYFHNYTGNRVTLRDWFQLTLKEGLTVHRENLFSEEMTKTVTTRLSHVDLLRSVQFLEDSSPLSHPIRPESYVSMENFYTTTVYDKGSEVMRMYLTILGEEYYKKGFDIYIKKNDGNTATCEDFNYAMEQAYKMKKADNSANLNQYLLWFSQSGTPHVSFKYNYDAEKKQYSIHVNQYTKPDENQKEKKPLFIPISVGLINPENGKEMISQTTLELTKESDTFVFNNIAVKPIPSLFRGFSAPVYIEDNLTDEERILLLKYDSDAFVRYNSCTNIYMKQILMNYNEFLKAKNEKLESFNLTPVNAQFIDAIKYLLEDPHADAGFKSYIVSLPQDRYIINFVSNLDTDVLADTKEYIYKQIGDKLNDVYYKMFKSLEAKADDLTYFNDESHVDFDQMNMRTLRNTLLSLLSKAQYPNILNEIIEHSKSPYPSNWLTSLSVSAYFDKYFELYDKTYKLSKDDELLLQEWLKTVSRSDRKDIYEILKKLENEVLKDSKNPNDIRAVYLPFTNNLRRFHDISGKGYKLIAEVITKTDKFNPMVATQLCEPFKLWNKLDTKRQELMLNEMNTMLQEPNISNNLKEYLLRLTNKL

[1] = target: T2, Heat shock factor protein 1 (Mus musculus, UniProt P38532); experiment: enhancement of HSF1-driven luciferase signal – cell-based, NIH3T3, luminescence, dose retest, confirmation (AID 435004); assay type: functional;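 further: stress induced by proteasome inhibitor MG132 added 30 min after compound; luciferase reporter driven by HSF1 response element in NIH3T3 cells; actives raise luminescence as potentiators of the MG132 stress response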
T2 sequence (P38532 whole entry): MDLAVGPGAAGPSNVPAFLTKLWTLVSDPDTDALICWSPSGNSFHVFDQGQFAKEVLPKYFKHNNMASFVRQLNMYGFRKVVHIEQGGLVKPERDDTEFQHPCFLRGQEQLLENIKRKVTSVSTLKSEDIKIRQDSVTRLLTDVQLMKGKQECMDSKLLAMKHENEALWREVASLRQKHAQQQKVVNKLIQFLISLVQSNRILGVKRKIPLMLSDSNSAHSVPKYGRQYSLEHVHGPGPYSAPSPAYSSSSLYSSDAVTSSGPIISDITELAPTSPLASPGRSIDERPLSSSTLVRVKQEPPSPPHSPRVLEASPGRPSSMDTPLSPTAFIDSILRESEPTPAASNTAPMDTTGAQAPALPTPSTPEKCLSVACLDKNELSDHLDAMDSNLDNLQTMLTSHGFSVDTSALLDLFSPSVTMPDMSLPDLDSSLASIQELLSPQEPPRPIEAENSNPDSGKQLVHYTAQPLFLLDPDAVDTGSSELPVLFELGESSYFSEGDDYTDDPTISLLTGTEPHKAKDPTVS

Trypsin = Trypsin (Sus scrofa, UniProt P00761); experiment: trypsin protease activity blockade – biochemical, quenched peptide fluorescence, cherry-pick, selectivity assay for Rce1 protease inhibitor project, dose response (AID 488789)
[2] = HEK-293T viability loss after treatment – luminescence, T-cell screen hits, cytotoxicity control for TCR NF-kB inhibitor project, dose response (AID 489026); assay type: functional, cell-based;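 further: cells exposed to compound about 14 hours before the viability readout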
[3] = target: T3, COUP transcription factor 2 (Homo sapiens, UniProt P24468); experiment: Luminescence-based cell-based high throughput dose response assay to identify inhibitors of COUP-TFII (NR2F2).; assay type: functional;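 further: HEK293 cells transiently cotransfected with COUP-TFII expression vector and reporter; luciferase reporter luminescence driven by COUP-TFII from the pX2-168 reporter plasmid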
T3 sequence (P24468 whole entry): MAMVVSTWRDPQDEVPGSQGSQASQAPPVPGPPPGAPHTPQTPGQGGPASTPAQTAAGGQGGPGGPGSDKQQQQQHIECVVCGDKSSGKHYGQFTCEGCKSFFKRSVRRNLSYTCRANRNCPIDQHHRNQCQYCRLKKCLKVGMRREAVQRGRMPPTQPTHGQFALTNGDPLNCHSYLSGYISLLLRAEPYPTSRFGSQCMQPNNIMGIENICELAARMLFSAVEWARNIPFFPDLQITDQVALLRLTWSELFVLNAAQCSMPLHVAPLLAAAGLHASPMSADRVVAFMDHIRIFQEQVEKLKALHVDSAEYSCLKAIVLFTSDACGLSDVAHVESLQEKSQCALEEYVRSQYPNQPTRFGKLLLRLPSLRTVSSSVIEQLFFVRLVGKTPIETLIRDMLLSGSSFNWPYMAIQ

INS1 = experiment: INS-1E survival protection against cytokine death – cell-based, luminescence, retest, dose response (AID 449756); assay type: functional; settings: Rattus norvegicus;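 further: cell death triggered by IL-1 beta plus TNF-alpha plus IFN-gamma mixture; protective hits raise ATP signal compared with cytokine alone wells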
[4] = A2780 cell killing – plate reader, dry powder samples, cytotoxicity control, dose response (AID 743046); assay type: functional, cell-based
[5] = OVCAR8 cell viability loss – plate reader, dry powder samples, PAX8 project, dose response (AID 743197); assay type: functional, cell-based; settings: OVCAR-8
Paired box protein Pax-8 = Paired box protein Pax-8 (Homo sapiens, UniProt Q06710); experiment: PAX8 transcriptional activity inhibition in RMG-I – RMG-I cells, luciferase, cherry-pick, dose response (AID 687027); assay type: functional, cell-based;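 further: luciferase reporter driven by Pax8 target thyroperoxidase promoter measured by SteadyGlo luminescence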
[6] = Luminescence-based cell-based high throughput dose response assay to identify activators of the DAF-12 from the parasite S. stercoralis (ssDAF-12).; assay type: functional
[7] = target: T4, Oxysterols receptor LXR-beta (Homo sapiens, UniProt P55055); assay type: functional, cell-based;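 further: Cell-based luminescence dose-response assay of agonist activity at LXR, run as a confirmatory counterscreen to a daf-12 agonist screen; agonist potency from rising luciferase signal of a Gal4-LXR reporter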
T4 sequence (P55055 whole entry): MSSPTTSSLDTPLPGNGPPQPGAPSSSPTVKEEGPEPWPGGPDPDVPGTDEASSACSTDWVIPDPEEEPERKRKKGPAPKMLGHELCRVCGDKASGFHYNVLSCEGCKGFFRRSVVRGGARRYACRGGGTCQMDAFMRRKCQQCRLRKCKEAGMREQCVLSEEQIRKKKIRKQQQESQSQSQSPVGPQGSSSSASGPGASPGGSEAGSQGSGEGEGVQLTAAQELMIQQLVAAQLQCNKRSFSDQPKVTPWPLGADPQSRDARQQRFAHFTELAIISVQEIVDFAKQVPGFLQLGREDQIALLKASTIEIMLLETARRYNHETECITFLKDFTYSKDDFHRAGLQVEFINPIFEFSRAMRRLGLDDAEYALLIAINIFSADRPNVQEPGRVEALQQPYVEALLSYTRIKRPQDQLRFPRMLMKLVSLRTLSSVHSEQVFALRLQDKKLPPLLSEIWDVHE

[8] = target: T4, Oxysterols receptor LXR-beta; experiment: LXR agonists, Gal4 luciferase reporter, dose response, counter-screen for ssDAF-12 agonist project, cell-based, luminescence, HEK293, S. stercoralis campaign (AID 720737); assay type: functional; settings: read-out: IC50 (the source's name)
[9] = target: T5, Mannose-6-phosphate isomerase (Homo sapiens, UniProt P34949); experiment: MPI inhibition at elevated mannose 6-phosphate – biochemical, fluorescence intensity, high mannose 6-phosphate, primary screen (AID 1220)
T5 sequence (P34949 whole entry): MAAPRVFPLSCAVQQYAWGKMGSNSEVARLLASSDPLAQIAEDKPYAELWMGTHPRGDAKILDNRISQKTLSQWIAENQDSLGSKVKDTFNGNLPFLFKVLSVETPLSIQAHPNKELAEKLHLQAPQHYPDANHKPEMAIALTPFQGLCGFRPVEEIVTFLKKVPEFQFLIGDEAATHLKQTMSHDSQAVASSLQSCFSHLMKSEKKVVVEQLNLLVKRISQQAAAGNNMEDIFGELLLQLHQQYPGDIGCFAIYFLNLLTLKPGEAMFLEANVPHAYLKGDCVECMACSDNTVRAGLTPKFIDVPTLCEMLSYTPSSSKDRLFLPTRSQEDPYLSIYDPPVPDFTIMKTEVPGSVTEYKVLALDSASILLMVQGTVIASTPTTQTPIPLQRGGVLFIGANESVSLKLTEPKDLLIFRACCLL

[10] = NIH-3T3 fibroblast cytotoxicity, dose response, cytotoxicity control, cell-based, fluorescence, Alamar Blue, secondary assay (AID 2327); assay type: functional;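 further: NIH-3T3 mouse fibroblasts cultured with fluconazole at 8 µg/mL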
[11] = target: T2, Heat shock factor protein 1; experiment: decrease of HSF1-responsive luciferase luminescence – cell-based, NIH3T3, dose retest, confirmation (AID 2382); assay type: functional;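 further: NIH3T3 fibroblasts with HSF1-driven luciferase reporter stressed by proteasome inhibitor MG132; luminescence from HSF1-driven luciferase expression after 8 hours of MG132 stress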
[12] = fluconazole-exposed Candida albicans growth modulators – fluorescence, retest, confirmation (AID 2467); assay type: functional, cell-based
[13] = viability of uninfected HEp-2 cells – cell-based, HTS, cytotoxicity control for RSV inhibitor project, dose response (AID 2410); assay type: functional; settings: human respiratory syncytial virus
Estrogen receptor = target: T6, Estrogen receptor (Homo sapiens, UniProt P03372);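 further: potency for inhibiting coactivator peptide recruitment to the receptor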
T6 sequence (P03372 whole entry): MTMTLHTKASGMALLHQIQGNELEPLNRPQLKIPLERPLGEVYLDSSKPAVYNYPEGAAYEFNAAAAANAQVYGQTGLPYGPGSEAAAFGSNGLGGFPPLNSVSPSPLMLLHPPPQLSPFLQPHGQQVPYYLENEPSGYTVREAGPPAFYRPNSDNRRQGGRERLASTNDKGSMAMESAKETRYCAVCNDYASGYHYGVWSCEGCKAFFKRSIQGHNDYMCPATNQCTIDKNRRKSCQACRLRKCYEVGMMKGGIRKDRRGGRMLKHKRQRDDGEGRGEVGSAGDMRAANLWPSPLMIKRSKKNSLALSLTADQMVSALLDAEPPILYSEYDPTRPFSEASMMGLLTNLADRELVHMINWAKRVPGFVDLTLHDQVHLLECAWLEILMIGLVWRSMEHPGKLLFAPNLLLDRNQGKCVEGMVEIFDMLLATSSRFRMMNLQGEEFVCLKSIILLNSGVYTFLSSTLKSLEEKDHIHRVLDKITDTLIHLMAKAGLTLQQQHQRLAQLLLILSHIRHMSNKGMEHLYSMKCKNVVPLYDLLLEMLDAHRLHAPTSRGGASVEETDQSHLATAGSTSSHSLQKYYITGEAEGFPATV

Estrogen receptor beta = Estrogen receptor beta (Homo sapiens, UniProt Q92731);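 further: recombinant ER-beta bound to coactivator SRC1 peptide in presence of estradiol agonist; inhibitors block coactivator peptide binding and lower the FRET signal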
Sequence of Estrogen receptor beta (Q92731 whole entry): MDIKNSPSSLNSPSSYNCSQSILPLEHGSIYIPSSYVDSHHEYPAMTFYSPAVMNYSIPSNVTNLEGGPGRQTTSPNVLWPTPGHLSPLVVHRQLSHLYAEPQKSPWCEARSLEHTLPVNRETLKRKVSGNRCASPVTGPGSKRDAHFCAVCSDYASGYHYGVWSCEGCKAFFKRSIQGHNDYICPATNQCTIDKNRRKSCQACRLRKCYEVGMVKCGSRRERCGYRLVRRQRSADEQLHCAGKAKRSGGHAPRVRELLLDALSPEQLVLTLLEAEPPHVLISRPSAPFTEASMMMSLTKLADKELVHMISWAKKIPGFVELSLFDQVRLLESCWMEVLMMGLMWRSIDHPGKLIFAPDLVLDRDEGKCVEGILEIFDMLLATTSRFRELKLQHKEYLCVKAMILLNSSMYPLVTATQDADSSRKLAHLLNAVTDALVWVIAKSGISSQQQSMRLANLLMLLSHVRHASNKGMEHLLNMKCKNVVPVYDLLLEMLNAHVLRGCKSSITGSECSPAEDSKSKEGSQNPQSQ

Sequence of Cytochrome P450 2C9 (P11712 whole entry): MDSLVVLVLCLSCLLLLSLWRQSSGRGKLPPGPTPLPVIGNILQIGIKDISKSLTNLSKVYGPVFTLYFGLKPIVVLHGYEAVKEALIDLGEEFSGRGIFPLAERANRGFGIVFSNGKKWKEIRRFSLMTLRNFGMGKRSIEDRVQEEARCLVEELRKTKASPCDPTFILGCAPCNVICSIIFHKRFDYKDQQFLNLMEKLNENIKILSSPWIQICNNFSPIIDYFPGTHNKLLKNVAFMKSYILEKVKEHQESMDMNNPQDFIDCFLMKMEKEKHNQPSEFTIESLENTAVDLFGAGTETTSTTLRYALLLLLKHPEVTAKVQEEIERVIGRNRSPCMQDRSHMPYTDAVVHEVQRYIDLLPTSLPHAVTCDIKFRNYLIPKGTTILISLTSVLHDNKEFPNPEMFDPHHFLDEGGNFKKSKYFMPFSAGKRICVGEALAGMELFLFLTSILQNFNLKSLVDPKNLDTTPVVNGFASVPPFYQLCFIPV
Sequence of Paired box protein Pax-8 (Q06710 whole entry): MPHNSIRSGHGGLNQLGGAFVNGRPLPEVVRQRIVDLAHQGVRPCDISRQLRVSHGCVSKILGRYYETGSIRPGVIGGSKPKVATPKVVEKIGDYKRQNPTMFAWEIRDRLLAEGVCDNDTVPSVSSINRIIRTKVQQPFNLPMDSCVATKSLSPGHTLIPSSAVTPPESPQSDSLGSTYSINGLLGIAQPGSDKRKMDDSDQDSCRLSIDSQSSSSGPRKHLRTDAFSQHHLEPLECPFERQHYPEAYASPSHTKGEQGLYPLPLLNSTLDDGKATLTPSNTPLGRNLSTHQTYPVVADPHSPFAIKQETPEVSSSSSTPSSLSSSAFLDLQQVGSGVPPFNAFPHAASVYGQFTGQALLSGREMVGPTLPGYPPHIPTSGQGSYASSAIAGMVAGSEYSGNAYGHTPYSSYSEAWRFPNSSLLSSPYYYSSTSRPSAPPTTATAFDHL
Sequence of Trypsin (P00761 whole entry): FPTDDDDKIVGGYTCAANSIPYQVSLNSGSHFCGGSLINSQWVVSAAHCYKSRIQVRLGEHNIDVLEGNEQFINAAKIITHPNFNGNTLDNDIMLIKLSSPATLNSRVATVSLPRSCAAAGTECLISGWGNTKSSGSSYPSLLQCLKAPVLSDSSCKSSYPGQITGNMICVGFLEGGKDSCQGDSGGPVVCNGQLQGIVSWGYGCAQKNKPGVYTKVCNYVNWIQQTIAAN

CC(C)C[C@@H](CC(=O)N[C@@H](CCC(=O)O)CC(=O)O)NC(=O)[C@@H]1CCCC[C@H]1NC(=O)C[C@@H](NC(=O)C[C@H](CO)NC(=O)[C@@H]1CNCC[C@H]1N)C(C)C
AC50 (Cytochrome P450 2C9): 31.6 µM (inconclusive)

Cc1ccc(S(=O)(=O)NNC(=O)c2sc3nc(C)cc(C)c3c2-n2cccc2)cc1
IC50 (Aminopeptidase N): 26.9 µM (active) | EC50 [1]: > 260 µM (inactive)

Cc1cc2nn(-c3cccc4ccccc34)nc2cc1NC(=O)c1cccs1
AC50 (Trypsin): 8.06 µM (active)

Cc1nn(C)c(C)c1CN(Cc1nc(CCC(C)C)no1)C(C)C
IC50 [2]: > 80 µM (inactive) | IC50 [3]: 4.68 µM (active) | AC50 (INS1): 2.24 µM (active)

CC(C)C[C@@H](CC(=O)N[C@H](CC(=O)N[C@@H]1CCCC[C@H]1C(=O)N[C@H](CC(=O)N[C@@H](CCC(=O)O)CC(=O)O)Cc1ccccc1)C(C)C)NC(=O)[C@@H]1CNCC[C@H]1N
AC50 (Cytochrome P450 2C9): 31.6 µM (inconclusive)

CC(C)C[C@@H](CC(=O)N[C@@H](CCCN)CC(=O)N[C@@H]1CCNC[C@H]1C(=O)N[C@H](CC(=O)N[C@@H](CCC(=O)O)CC(=O)O)CC(C)C)NC(=O)[C@@H]1CNCC[C@H]1N
AC50 (Cytochrome P450 2C9): 39.8 µM (inconclusive)

O=C(C[C@@H]1CC[C@H]2[C@@H](COC[C@H](O)CN2C(=O)Nc2ccc(Cl)c(Cl)c2)O1)NCc1ccc(Cl)cc1
AC50 [4]: 11.9 µM (active) | AC50 [5]: > 70 µM (inactive) | AC50 (Paired box protein Pax-8): 13.5 µM (active)

Cc1ccc2[nH]c(-c3sc4nc(C)ccc4c3N)nc2c1
IC50 [6]: > 67.6 µM (inactive) | EC50 [7]: > 67.5 µM (inactive) | EC50 (cells): > 67.5 µM (inactive)

O=C(O)COc1ccc(/C=N/n2c(COc3ccccc3)nc3ccccc3c2=O)cc1
IC50 (Aminopeptidase N): 8.94 µM (active)

O=C(CNC(=O)c1cccs1)OCC(=O)c1ccc(Cl)cc1
IC50 [6]: > 67.5 µM (inactive) | EC50 [8]: > 67.5 µM (inactive)

Cc1cccc(NCc2ccc(O)c3ncccc23)c1C
IC50 [9]: > 50 µM (not active) | EC50 [10]: > 150 µM (inactive) | EC50 [11]: > 195 µM (not active) | AC50 (Paired box protein Pax-8): 15 µM (active) | EC50 [12]: > 38 µM (not active)

Cc1cc(-c2nc3ccccc3s2)ccc1N
IC50 [6]: > 67.6 µM (inactive) | EC50 [7]: > 67.6 µM (inactive) | EC50 [8]: > 67.6 µM (inactive) | EC50 (cells): > 67.6 µM (inactive)

Cn1cccc1C(=O)OCc1csc(-c2ccccc2)n1
IC50 [6]: > 67.5 µM (inactive) | EC50 [7]: > 67.5 µM (inactive) | EC50 [8]: > 67.5 µM (inactive) | EC50 (cells): > 67.5 µM (inactive)

CC(C)C/N=C/c1c(O)c([N+](=O)[O-])cc2oc3c(c12)CCCC3
IC50 [9]: > 50 µM (not active) | CC50 [13]: 25.3 µM (active)

COc1ccc(-c2[nH]nc3c2C2(C(=O)N(CC(=O)O)c4ccccc42)C(C#N)=C(N)O3)cc1OC (stereo unspecified)
IC50 (Aminopeptidase N): 43.3 µM (active)

O=C(Cc1cccs1)Nc1ccccn1
IC50 (Estrogen receptor): 13.4 µM (active) | IC50 (Estrogen receptor beta): 16.8 µM (active)
